Assay: SNAP/E2As dry storage stability study
Format: physicochemical
Details: SNAP doped in E2As polymer
Protocol: The stability of SNAP doped in the E2As polymer during dry storage was also evaluated. SNAP incorporated in E2As can potentially undergo thermal or photochemical decomposition during storage, thus limiting the available NO release capacity at the time of use. Therefore, 10 wt % SNAP/E2As films were stored with desiccant in the freezer in the dark, dry in the dark or in ambient light with desiccant at room temperature, and dry in the dark with desiccant at 37° C. and 50° C. These stability studies were conducted in a similar manner as the cumulative NO release experiments, where films were dissolved in DMAc to determine the amount of SNAP remaining in the polymer at various time points (as described herein). […] After 2 months, for example, the 10 wt % SNAP films stored in the freezer (−20° C.) in the dark maintain about 96% of the initial SNAP species, compared to 89% for films stored at room temperature and 82% for films stored at 37° C. (see FIG. 8). […]
SNAP/E2As films (consisting of 10 wt % SNAP) were placed under the following conditions in vials with desiccant: room temperature with ambient light, room temperature in dark, 37° C. in dark, and in the freezer (−20° C.) in dark. At various time points over a 4 month period, films were dissolved in DMAc, and the UV-Vis spectra was recorded to determine the % SNAP remaining in the film, as compared to the initial 10 wt % SNAP.

- Time for which SNAP is stable in the Elast-Eon E2As polymer: at least 4 months
Structure (SMILES): CC(=O)N[C@H](C(=O)O)C(C)(C)SN=O (racemic) [SNAP, S-nitroso-N-acetylpenicillamine]

From patent US20150366831A1, “THROMBORESISTANT/BACTERICIDAL S-NITROSO-N-[…] (SNAP)-DOPED NITRIC OXIDE RELEASE POLYMERS WITH ENHANCED STABILITY” (THE REGENTS OF THE UNIVERSITY OF MICHIGNA, priority 2013, published 2015)
